Source: patent US20230218710A1, “METHOD OF TREATING CORONAVIRUS INFECTIONS” (priority 2020, published 2023)
Marks after values point to notes of the source that are not given here.

Assays:
Apelin Receptor (APJ) = target: T1, Apelin Receptor (APJ) (Homo sapiens, UniProt P35414); assay: Phosphorylation of ERK1/2 in cultured cells overexpressing APJ; format: cell-based; details: 5 min, 100 nM Pyr-Apelin-13 = positive control, acetate salts
T1 construct: host or cells: CHO-K1 AGTRL1 Gi cells
T1 sequence (P35414 1-380): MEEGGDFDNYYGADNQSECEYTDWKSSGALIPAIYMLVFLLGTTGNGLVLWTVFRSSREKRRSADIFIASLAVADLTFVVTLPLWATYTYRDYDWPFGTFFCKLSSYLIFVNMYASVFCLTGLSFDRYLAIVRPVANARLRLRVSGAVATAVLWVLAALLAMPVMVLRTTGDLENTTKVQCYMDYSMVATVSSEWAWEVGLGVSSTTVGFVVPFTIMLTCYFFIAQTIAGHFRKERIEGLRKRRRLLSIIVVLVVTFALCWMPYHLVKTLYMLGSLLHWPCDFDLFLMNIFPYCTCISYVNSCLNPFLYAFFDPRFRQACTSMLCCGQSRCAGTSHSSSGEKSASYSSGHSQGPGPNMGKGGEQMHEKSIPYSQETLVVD
Method: The effect of the peptides of the current invention on activation of Apelin Receptor (APJ)-mediated signaling can be assessed using an assay to monitor phospho-ERK/phospho-p44/42 MAPK (p-ERK1/2) levels in cultured cells overexpressing Apelin Receptor (APJ) such as CHO-K1, derived from Chinese hamster ovary. Peptides were initially prepared as 100× stocks in H2O. […] Following a 5 min incubation the supernatant was removed and the cells were placed on ice and washed twice with cold HBSS. The HBSS was removed and the cells were immediately lysed in 300 μl/well of 1× lysis buffer (CST 10× Lysis Buffer; Cell Signaling Technology; Danvers, Mass.); lysis buffer was supplemented with 1 mM PMSF (Millipore-Sigma; Saint Louis, Mo.) and Halt Protease/Phosphatase Inhibitor Cocktail (Thermo-Fisher; Waltham, Mass.) prior to use. The samples were then placed on ice for 10 min, wells were scraped and lysates transferred to microfuge tubes. The samples were centrifuged at 12,500 rpm for 10 min at 4° C. and p-ERK1/2 expression in each sample was measured using Phospho-p44/42 MAPK (Thr202/Tyr204) Sandwich ELISA kit according to manufacturer's instructions (Cell Signaling Technology; Danvers, Mass.). Absorbance was measured using a Cytation 3 plate reader at […] (BioTek; Winooski, Vt.). […] Each data point represents the average of duplicate assays.

[1] = test system: LPS-induced acute lung injury mouse model; assay: LPS-induced acute lung injury model in mouse (Example 6); format: in vivo, mice; details: histopathology, 24 h after LPS, 5 mg/kg i.p.
Method: The effect of the peptides of the current invention on acute lung injury can be assessed in an LPS-induced acute lung injury mouse model by monitoring outcomes such as lung weight, fluid accumulation, cytokine secretion in blood or bronchoalveolar lavage fluid (BALF), neutrophil infiltration into lung tissues, and assessment of acute lung injury score by histopathology. Acute lung injury was induced in male C57BL/6 mice (6 to 8 weeks old) by intratracheal administration of 40 μL lipopolysaccharide (LPS) (Sigma Aldrich, St. Louis, Mo.) in PBS at 5 mg/kg. Control animals received intratracheal PBS alone. […] Treatments were administered 1 h prior to LPS for animals designated for sacrifice at 4 h after LPS, or at both 1 h prior to and 6 h after LPS for animals designated for sacrifice at 24 h after LPS. At 4 or 24 hours post LPS administration, tissues were harvested. Lungs were weighed, flushed with Hanks Buffer to provide bronchoalveolar lavage fluid (BALF). Lungs were fixed in 10% neutral buffered formalin (NBF) for histopathology. Tissue slides were stained with hematoxylin and eosin (H&E) and evaluated and scored with light microscopy of 5 representative microscopic fields (100× magnification) scoring on a 0-5 scale using standard methods (Matute-Bello G et al 2011. An Official American Thoracic Society Workshop Report: Features and Measurements of Experimental Acute Lung Injury in Animals. Am J Respir Cell Mol Biol 44:725-38). The average score for five fields was calculated for each animal. Levels of pro-inflammatory cytokines in BALF were determined using a meso scale discovery (MSD) system. Data for test peptides were compared to the vehicle control group. Lung weights were normalized to body weight.

[2] = test system: LPS-induced acute lung injury mouse model; assay: LPS-induced acute lung injury model in mouse (Example 7); format: in vivo, mice; details: 4 h after LPS, 5 mg/kg i.p.
Method: The effect of the peptides of the current invention on acute lung injury can be assessed in an LPS-induced acute lung injury mouse model by monitoring outcomes such as lung weight, fluid accumulation, cytokine secretion in blood or bronchoalveolar lavage fluid (BALF). Acute lung injury was induced in male C57BL/6 mice (6 to 8 weeks old) by intratracheal administration of 40 μL lipopolysaccharide (LPS) (Sigma Aldrich, St. Louis, Mo.) in PBS at 5 mg/kg. Control animals received intratracheal PBS alone. Animals (n=8 per treatment group) induced with LPS received intraperitoneal treatment with: PBS (vehicle control) or test peptides at 5 mg/kg in water. Treatments were administered 1 h prior to LPS. At 4 h post LPS administration, tissues were harvested. Lungs were weighed, flushed with Hanks Buffer to provide bronchoalveolar lavage fluid (BALF). Data for test peptides were compared to the vehicle control group. Table 11 compares the lung weights following LPS induction and treatment with PBS (vehicle control) or peptides. Table 12 compares the levels of pro-inflammatory cytokines in BALF following LPS induction and treatment with PBS (vehicle control) or peptides.

Question: “(PEG12)KRRLLGLVFQSLCG(dA) (KRRLLGLVFQSLCGA; N-terminal PEG12; C-terminal D-alanine; (1)..(1) PEG12; (15)..(15) D-Ala) [SEQ ID NO: 37]” was tested. Which “pERK1/2 (% of Positive Control)” value (Apelin Receptor (APJ); 0.4 μM peptide) did it give?
Answer: Its value is 9.9%.

Question: And the “pERK1/2 (% of Positive Control)” value (Apelin Receptor (APJ); 2.0 μM peptide)?
Answer: Its value is 27.3%.

Question: And the “pERK1/2 (% of Positive Control)” value (Apelin Receptor (APJ); 10 μM peptide)?
Answer: Its value is 54.2%.

Question: And the “pERK1/2 (% of Positive Control)” value (Apelin Receptor (APJ); 50 μM peptide)?
Answer: Its value is 88.4%.

Question: And the “Mean (SEM) Alveolar Neutrophil Infiltration Score” value ([1]; 0-5 scale)?
Answer: Its value is 1.50 (0.14).

Question: What about the “Mean (SEM) Interstitial Neutrophil Infiltration Score” value ([1]; 0-5 scale) of the same substance?
Answer: The value was 1.30 (0.11).

Question: And the “Mean (SEM) Composite Lung Injury Score” value [1]?
Answer: The value was 2.83 (0.23).

Question: What about the “Mean (SEM) Lung Weight” value [2] of the same substance?
Answer: The value was 0.259 (0.004)*** g.

Question: What about the “Pro-inflammatory Cytokine Level IFNγ” value ([2]; BALF) of the same substance?
Answer: Its value is 0.13 pg/mL.

Question: What about the “Pro-inflammatory Cytokine Level IL-1β” value ([2]; BALF) of the same substance?
Answer: Its value is 72.5 pg/mL.

Question: And the “Pro-inflammatory Cytokine Level IL-2” value ([2]; BALF)?
Answer: Its value is 0.60 pg/mL.

Question: And the “Pro-inflammatory Cytokine Level IL-4” value ([2]; BALF)?
Answer: The value was 0.86 pg/mL.

Question: What about the “Pro-inflammatory Cytokine Level IL-6” value ([2]; BALF) of the same substance?
Answer: Its value is 3080 pg/mL.

Question: And the “Pro-inflammatory Cytokine Level IL-9” value ([2]; BALF)?
Answer: Its value is 4.74 pg/mL.

Question: And the “Pro-inflammatory Cytokine Level KC/GRO” value ([2]; BALF)?
Answer: Its value is 2660 pg/mL.

Question: What about the “Pro-inflammatory Cytokine Level TNFα” value ([2]; BALF) of the same substance?
Answer: Its value is 3850 pg/mL.
